According to patent US11660319B2, “Compositions comprising bacterial strains” (priority 2017, dated 2023):

How the values were obtained:
HDAC = HDAC inhibition on whole HT-29 cells and HT-29 cell lysate; assay type: cell-based; details: HT-29, whole cells or lysate not told apart in the sentence
Method: Bacterial culture and cell-free supernatant collection Pure cultures of bacteria were grown anaerobically in YCFA broth until they reached their stationary growth phase. Cultures were centrifuged at 5,000×g for 5 minutes and the cell-free supernatant (CFS) was filtered using a 0.2 μM filter (Millipore, UK). 1 mL aliquots of the CFS were stored at −80° C. until use. Sodium butyrate, hexanoic and valeric acid were obtained from Sigma Aldrich (UK) and suspensions were prepared in YCFA broth.
To investigate which metabolites were responsible for the strain-induced HDAC inhibition, different concentrations of hexanoic acid, valeric acid and sodium butyrate were measured for their HDAC inhibition on whole HT-29 cells and on HT-29 cell lysate.

Class I HDACs = test: Specific HDAC activity analysis, Class I HDACs overall; assay type: biochemical
Method: Specific HDAC inhibition activity was analysed for HDAC1, 2, 3, 4, 5, 6, 9 using fluorogenic assay kits for each type of HDAC (BPS Bioscience, CA). Assays were conducted according to manufacturer's instructions and each sample were performed in replicates. Cell free supernatants were diluted 1 in 10 and exposed to specific HDAC proteins provided in the kit to maintain consistency between methods.
The specific HDAC inhibition profile of the test bacteria strain was investigated. Specific HDAC inhibition assays (BPS Bioscience, CA) were carried out for Class I and Class II HDACs. The ability of the bacterial strain to inhibit HDAC enzymes was compared to butyrate, hexanoic and valeric acid (FIGS. 14 and 15).

[1] = test system: SH-SY5Y neuroblastoma cells; test: Neuroprotection / cell viability of neuroblastoma cells treated with MPP (CCK-8); assay type: cell-based, human
Method: Once grown the SH-SY5Y neuroblastoma cells were plated on 96-well plate at 11,000 cells/well and incubated for 2 days. The cells were then transferred to differentiation medium (which contains FBS at 1%) and 10 uM retinoic acid (Sigma Aldrich, cat. n. R2625-100MG). Differentiation medium was replaced every other day and cells were harvested at 7 day of differentiation. Cells were pre-treated with or without MPP (Sigma Aldrich, cat. n. D048-1G) for 8 hours. Subsequently, cells were treated with 10% bacterial supernatant and incubated overnight. Cell viability was measured by using CCK-8 reagent (Sigma Aldrich, Cell Counting Kit-8, cat. n. 96992-3000TESTS-F) and read at 450 nm wavelength.

BALBc mice [2] = test: Monoamine analysis in brainstem of mice fed with bacteria (HPLC); assay type: in vivo, mouse; details: 1×10^9 CFU oral gavage 6 days
Method: Neurotransmitter concentration was analysed by HPLC on samples from the brainstem. Briefly, brainstem tissue was sonicated in 500 μl of chilled mobile phase spiked with 4 ng/40 μl of N-Methyl 5-HT (Sigma Chemical Co., UK) as internal standard. The mobile phase contained 0.1 M citric acid, 5.6 mM octane-1-sulphonic acid (Sigma), 0.1 M sodium dihydrogen phosphate, 0.01 mM EDTA (Alkem/Reagecon, Cork) and 9% (v/v) methanol (Alkem/Reagecon) and was adjusted to pH 2.8 using 4 N sodium hydroxide (Alkem/Reagecon). Homogenates were then centrifuged for 15 min at 22,000×g at 4° C. and 40 μl of the supernatant injected onto the HPLC system which consisted of a SCL 10-Avp system controller, LECD 6A electrochemical detector (Shimadzu), a LC-10AS pump, a CTO-10A oven, a SIL-10A autoinjector (with sample cooler maintained at 40 C) and an online Gastorr Degasser (ISS, UK). A reverse-phase column (Kinetex 2.6 u C18 100×4.6 mm, Phenomenex) maintained at 30° C. was employed in the separation (Flow rate 0.9 ml/min). The glassy carbon working electrode combined with an Ag/AgCl reference electrode (Shimdazu) operated a +0.8 V and the chromatograms generated were analyzed using Class-VP 5 software (Shimadzu). The neurotransmitters were identified by their characteristic retention times as determined by standard injections, which run at regular intervals during the sample analysis. The ratios of peak heights of analyte versus internal standard were measured and compared with standard injection. Results were expressed as ng of neurotransmitter per g fresh weight of tissue.

[3] = test system: HT29-mtx epithelial, mucin-producing cell monolayers; test: IL-8 secretion of HT29-mtx monolayers; assay type: cell-based; details: bacterial supernatants 24 h; compared to untreated and YCFA-treated cells
From the text: HT29-mtx epithelial, mucin-producing cell monolayers were used as an in vitro model to evaluate gut barrier disruption and immune stimulation following treatment with MRx0005 and MRx0029.

[4] = test system: HT29-mtx epithelial, mucin-producing cell monolayers; test: mRNA expression of tight junction proteins in HT29-mtx (qRT-PCR); assay type: cell-based
Method: Total RNA was extracted using the RNeasy mini kit (Qiagen, Manchester, JUK) according to the manufacturer's instructions, and the RNA concentration determined by absorbance at 260/280 nm using a spectrophotometer (nano-Drop ND-1000; Thermo Scientific, Wilmington, Del.). For mRNA expression analysis, cDNA was prepared from total RNA using the High-Capacity cDNA reverse transcription kit (Applied Biosystems, UK) according to the manufacturer's instructions. The reverse transcription reactions were performed in a Thermo cycler (Biometra, Germany) at 25° C. for 10 min, 37° C. for 120 min, and 85° C. for 5 min, hold on at 4° C. Resulting cDNA was amplified in duplicates by the SYBR-Green PCR assay, and products were detected on QuantStudio 6 flex real-time PCR machine (Applied Biosystems, UK) using a standardised profile (initial denaturation of 95° C. for 10 minutes, followed by 40 cycles of 15 seconds of denaturation at 95° C. and 60 seconds of annealing/extension at 60/65° C., depending on the primers. A dissociation stage was added after the 40 cycles to generate a melting curve. Analysis was performed using the Applied Biosystems QuantStudio Real-Time PCR Software v1.2. The primer sequences for Actin, Villin, Occludin TJP1 and TJP2 are provided in the sequence listing.

BALBc mice [5] = test: Ex vivo gene expression in colon and ileum of mice fed with bacteria; design: species or system mouse
Method: Animals were allowed to habituate to their holding room for one week after arrival into the animal unit. They receive oral gavage (200 μL dose) of live biotherapeutics at a dose of 1×10^9 CFU for 6 consecutive days between 15:00 and 17:00. On day 7, the animals are decapitated, and tissues are harvested for experimentation. The in vitro results were compared with data from the ex vivo parallel analysis on the gut of mice fed with […] expression of TJP2 and occludin was quantified in the colon and ileum. […] Total RNA was extracted using the mirVanaTM miRNA Isolation kit (Ambion/Llife technologies, Paisley, UK) and DNase treated (Turbo DNA-free, Ambion/life technologies) according to the manufacturers recommendations. RNA was quantified using NanoDropTM spectrophotometer (Thermo Fisher Scientific Inc., Wilmington, Del., USA) according to the manufacturer's instructions. RNA quality was assessed using the Agilent Bioanalyzer (Agilent, Stockport, UK) according to the manufacturer's procedure and an RNA integrity number (RIN) was calculated. […] RNA was reverse transcribed to cDNA using the Applied Biosystems High Capacity cDNA kit (Applied Biosystems, Warrington, UK) according to manufacturer's instructions. Briefly, Multiscribe Reverse Transcriptase (50 U/μL) (1)(2)(1)(10) was added as part of RT master mix, incubated for 25° C. for 10 min, 37° C. for 2 h, 85° C. for 5 min and stored at 4° C. Quantitative PCR was carried out using probes (6 carboxy fluorescein-FAM) designed by Applied Biosystems to mouse specific targeted genes, while using β-actin as an endogenous control. Amplification reactions contained 1 μl cDNA, 5 μl of the 2× PCR Master mix (Roche), 900 nM of each primer and were brought to a total of 10 μl by the addition of RNase-free water. All reactions were performed in triplicate using 96-well plates on the LightCycler®480 System. Thermal cycling conditions were as recommended by the manufacturer (Roche) for 55 cycles. To check for amplicon contamination, each run contained no template controls in triplicate for each probe used. Cycle threshold (Ct) values were recorded. Data was normalized using β-actin and transformed using the 2-ΔΔCT method and presented as a fold change vs. control group.

BALBc mice [6] = test: Gene expression in hippocampus, amygdala and prefrontal cortex (qPCR); assay type: in vivo, mouse
Method: Animals were allowed to habituate to their holding room for one week after arrival into the animal unit. They receive oral gavage (200 μL dose) of live biotherapeutics at a dose of 1×10^9 CFU for 6 consecutive days between 15:00 and 17:00. On day 7, the animals are decapitated, and tissues are harvested for experimentation.
Total RNA was extracted using the mirVana™ miRNA Isolation kit (Ambion/Llife technologies, Paisley, UK) and DNase treated (Turbo DNA-free, Ambion/life technologies) according to the manufacturers recommendations. RNA was quantified using NanoDrop™ spectrophotometer (Thermo Fisher Scientific Inc., Wilmington, Del., USA) according to the manufacturer's instructions. RNA quality was assessed using the Agilent Bioanalyzer (Agilent, Stockport, UK) according to the manufacturer's procedure and an RNA integrity number (RIN) was calculated. RNA with RIN value >7 was used for subsequent experiments. RNA was reverse transcribed to cDNA using the Applied Biosystems High Capacity cDNA kit (Applied Biosystems, Warrington, UK) according to manufacturer's instructions. Briefly, Multiscribe Reverse Transcriptase (50 U/μL) (1)(2)(1)(10) was added as part of RT master mix, incubated for 25° C. for 10 min, 37° C. for 2 h, 85° C. for 5 min and stored at 4° C. Quantitative PCR was carried out using probes (6 carboxy fluorescein-FAM) designed by Applied Biosystems to mouse specific targeted genes, while using β-actin as an endogenous control. Amplification reactions contained 1 μl cDNA, 5 μl of the 2× PCR Master mix (Roche), 900 nM of each primer and were brought to a total of 10 μl by the addition of RNase-free water. All reactions were performed in triplicate using 96-well plates on the LightCycler®480 System. Thermal cycling conditions were as recommended by the manufacturer (Roche) for 55 cycles. To check for amplicon contamination, each run contained no template controls in triplicate for each probe used. Cycle threshold (Ct) values were recorded. Data was normalized using β-actin and transformed using the 2-ΔΔCT method and presented as a fold change vs. control group.
Expression of genes for neurotransmitter receptors [serotonin receptor 1a(5-HTR1a), dopamine D1 receptor, GABA receptor subunit B1, GABAA receptor, NMDA2A (Grin2A) and NMDA2B (Grin2b) receptor], inflammatory markers [IL-1β, IL6, CD11b, TNFα and TLR4], and endocrine markers [corticosterone releasing factor (CRF), corticosterone releasing factor receptors 1 and 2 (CRFR1, CRFR2), brain-derived neurotrophin factor (BDNF), vasopressin receptor, oxytocin receptor, glucocorticoid receptor and mineralocorticoid receptor] were analysed in brain tissue from the hippocampus, amygdala and prefrontal cortex.

mouse Splenocytes = test: Spleen cytokine assay ex vivo (LPS or ConA stimulation); assay type: in vivo
Method: Spleens were collected immediately in 5 mL RPMI media following sacrifice and cultured immediately. Spleen cells were first homogenised in this RPMI media, followed by 5 mins incubation with 1 ml of RBC lysis buffer (11814389001 ROCHE, Sigma). A further 10 ml of RPMI media was added, followed by 200G centrifugation for 5 mins. The supernatant was then filtered through 40 um strainer. Cells were counted and seeded (4,000,000/mL media). After 2.5 h of adaptation, cells were stimulated with lipopolysaccharide (LPS-2 μg/ml) or concanavalin A (ConA-2.5 μg/ml) for 24 h. Following stimulation, the supernatants were harvested to assess the cytokine release using Proinflammatory Panel 1 (mouse) V-PLEX Kit (Meso Scale Discovery, Maryland, USA) for TNFα, IL-10, IL-1β, Interferon γ, CXCL2 and IL6. The analyses were performed using MESO QuickPlex SQ 120, SECTOR Imager 2400, SECTOR Imager 6000, SECTOR S 600.
The ex-vivo splenocyte assay involves challenging the splenocytes (cells isolated from the spleen—a main organ involved in immune defense), with a bacterio- or viral-mimetic challenge.

`CCCCC(=O)O` [valeric acid] was tested, and the “total HDAC activity, pure substances” value (HDAC) was “significant HDAC inhibition”, the “total HDAC activity, pure substances” value (HDAC; listed as Valeric acid) was “inhibited” and the “Inhibition of Class I HDACs” value (Class I HDACs) was “class 1 HDAC inhibitor”.
In the case of Parabacteroides distasonis [MRx0005], the proliferation of neurons ([1]; 10% bacterial supernatant, without MPP) is reported as “increase”, the “protection compared to YCFA-MPP+ treated sample” value ([1]; RA-differentiated SHSY-5Y cells treated with MPP+) is reported as “about 20%” and the mitochondria metabolic activity ([1]; RA-differentiated SHSY-5Y cells, per se (no MPP+)) is reported as “increase”. The dopamine in brain (BALBc mice [2]) was “decrease”, the “secretion of IL-8” value [3] was “even lower secretion” and the “gene expression of tight junction proteins” value [4] was “did not alter”. The IDO-1 expression (BALBc mice [5]; colon) was “increase”, the “expression of IDO1” value (BALBc mice [5]; ileum) was “increased” and the “expression of Tph1” value (BALBc mice [5]; ileum) was “increased”. For the same molecule, the “expression of BDNF” value (BALBc mice [6]; amygdala) was “significantly increased”, the “expression of CD11b” value (BALBc mice [6]; amygdala) was “increase” and the “expression of GABBR1” value (BALBc mice [6]; amygdala) was “increased”. For the same molecule, the “expression of GABRA2” value (BALBc mice [6]; amygdala) was “significantly increased”, the “expression of Grin2a” value (BALBc mice [6]; amygdala) was “reduced” and the “expression of Grin2b” value (BALBc mice [6]; amygdala) was “reduced”. For the same molecule, the “expression of IL-6” value (BALBc mice [6]; amygdala) was “reduced”, the “expression of BDNF” value (BALBc mice [6]; prefrontal cortex) was “significant increase” and the interleukin-6 in splenocytes (mouse Splenocytes; challenge with LPS) was “reduced”. For the same molecule, the “levels of interferon-γ in splenocytes” value (mouse Splenocytes; challenge with LPS) was “significantly reduced”, the “tumour necrosis factor in splenocytes” value (mouse Splenocytes; challenge with LPS) was “reduced” and the “levels of the chemoattractant CXCL1” value (mouse Splenocytes; splenocytes) was “increase”.
